How the values were obtained:
body of the breast = test: clinical study, sonographic examination of the breast; format: in vivo, patients (women)
Description: In a clinical study, the reduction of the body of the breast was detected sonographically in 21 patients ranging in age from 18 to 52 years. In each case, 10 mg of dienogest were administered orally as a tablet over a period of 24 weeks at intervals of 12 hours. The daily dose therefore amounted to 20 mg of dienogest. The breast was examined sonographically before the treatment as well as after 12 and 24 weeks of continuous therapy.

[1] = blood fat values on administration of high dosages of dienogest; format: in vivo

## C[C@]12CCC3=C4CCC(=O)C=C4CC[C@H]3[C@@H]1CC[C@@]2(O)CC#N [dienogest, 17-hydroxy-3-oxo-19-nor-17α-pregna-4,9-diene-21-nitrile]
Body of the breast; 21 patients aged 18 to 52 years, 10 mg orally as tablet every 12 hours (20 mg daily) over 24 weeks, on the average, in all women
  body of the breast (detected sonographically): decreased significantly
Body of the breast; 21 patients, 10 mg orally every 12 hours (20 mg daily) over 24 weeks
  symptoms of mastopathic changes, such as duct ectasia: receded completely
[1]
  HDL cholesterol level: increased

Source: patent US6670350B1, “Method of administering dienogest in high dosages to reduce the body of the breast and pharmaceutical composition for same” (JenaPharm GmbH & Co. KG, priority 1999, dated 2003)
